Laboratory results published in publication PMC7336998, “Discovery of secondary sulphonamides as IDO1 inhibitors with potent antitumour effects in vivo” (Journal of Enzyme Inhibition and Medicinal Chemistry, 2020).
“Also recorded” adds a separate entry of the source.

Assays:
[1] = biological target: T1, IDO1 (Homo sapiens, UniProt P14902); assay: HeLa cell-based IDO1/kynurenine assay
T1 construct: a human cervical cancer cell line HeLa that endogenously expresses IDO1 upon IFN-γ treatment; endogenous in cells; host or cells: HeLa cells treated with human IFN-γ
T1 sequence (P14902 whole entry): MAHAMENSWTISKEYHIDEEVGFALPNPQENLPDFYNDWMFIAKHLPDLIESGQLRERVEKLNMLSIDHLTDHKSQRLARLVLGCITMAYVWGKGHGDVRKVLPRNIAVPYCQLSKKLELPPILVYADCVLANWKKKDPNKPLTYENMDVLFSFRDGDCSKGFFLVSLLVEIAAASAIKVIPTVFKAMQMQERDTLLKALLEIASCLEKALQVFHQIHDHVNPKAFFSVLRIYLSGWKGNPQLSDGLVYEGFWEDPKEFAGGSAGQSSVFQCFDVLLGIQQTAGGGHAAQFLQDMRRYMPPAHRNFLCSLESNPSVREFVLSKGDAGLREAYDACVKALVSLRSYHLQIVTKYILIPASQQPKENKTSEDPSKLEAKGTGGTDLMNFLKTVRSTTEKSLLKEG
Experimental: (§1) The main bioassays performed in the study, including HeLa cell-based IDO1/kynurenine assay, Western blot analysis, T cell proliferation and Treg cell differentiation experiments, were carried out as described previously.
It is well known that IDO1 is broadly expressed in human cancers and is induced by pro-inflammatory cytokines, such as interferon gamma (IFN-γ) and tumour necrosis factor alpha (TNF-α)[41]. Here we utilised a human cervical cancer cell line HeLa that endogenously expresses IDO1 upon IFN-γ treatment to evaluate the IDO1 inhibitory activity of the synthesised compounds by measuring kynurenine secreted into the media. […] Thus, we also employed this cellular assay to detect false positive IDO1 inhibitors and cytotoxic compounds by measuring HeLa cell viability. Clinical candidate navoximod was used as an assay control.

[2] = system: CT26 colon carcinoma; assay: CT26 colon carcinoma xenograft in immunocompetent BALB/c mice (tumour growth, H&E, IHC, TUNEL, spleen FACS); assay type: in vivo
Experimental: BALB/c mice (6–8 weeks old, 18–22 g) were supplied by Model Animal Research Centre of Nanjing University (Nanjing, China). Mice were maintained under standard specific-pathogen-free (SPF) conditions (21 ± 2 °C and 12-h light: dark cycle). Animal welfare and experimental procedures were carried out strictly in accordance with the Guide for the Care and Use of Laboratory Animals (The Ministry of Science and Technology of China, 2006) and the related ethical regulations of our university. All efforts were made to minimise animals’ suffering and to reduce the number of animals used. Mouse colon cancer cells (CT26) and melanoma cells (B16F1) were cultured and collected by centrifugation (1000 rpm, 5 min) and washed twice with ice-cold PBS. Then cells were diluted to 1 × 10^7/ml and 1 × 10^6 CT26/B16F1 cells (in 0.1 ml PBS) were injected subcutaneously into the right flanks of mice. All mice formed tumours three days after injection. Then mice were randomly distributed into five groups (n = 10/8) according to tumour volumes. 5d ([…], 12.5 mg/kg) were administered (i.g) to each group respectively every day. 5-FU (25 mg/kg) and Cis-platinum (1 mg/kg) were administered (i.p) every three days. Tumour length and tumour width were measured with a Vernier calliper every three days. Tumour volumes were measured and calculated using the equation volume = a × b^2/2, where “a” is the maximal […] and “b” is maximal orthogonal width. After the administration were completed, mice were weighed, euthanized, and tumours were removed and the weight were taken.
For immunohistochemistry staining, the sections were deparaffinized, rehydrated, and washed in 1% PBS-Tween 20, and then treated with 2% hydrogen peroxide, blocked with 3% goat serum (Life Technology, 16210–064) and incubated for 2 h at room temperature with specific primary antibodies. Then the slides were incubated with streptavidin-HRP (Shanghai Gene Company, GK500705) for 40 min, then stained with DAB (Shanghai Gene Company, GK500705) substrate and counter-stained with haematoxylin. Images were acquired by microscopy (Olympus IX51).
Given that it was the most prominent inhibitor in vitro, we chose compound 5d for further pharmacodynamic evaluation in vivo. Bowel cancer is the third leading cause of cancer in the world, thus we first evaluated the efficacy of compound 5d on the growth of murine CT26 colon carcinoma xenograft model in immunocompetent BALB/c mice. Fluorouracil (5-FU) is one of the most commonly used drugs to different cancers including bowel cancer, and was used as the positive control. The CT26 tumour-bearing mice were treated with 5d (3.125, 6.25, 12.5 mg/kg, i.g, every day) or 5-FU (25 mg/kg, i.p, […]). Tumour volumes were measured every two days for 14 days.
Figure 7. Compound 5d suppressed colon cancer growth in immunocompetent mice. 1 × 10^6 CT26 cells were transplanted subcutaneously into the armpit of the BALB/c mice. Three days after transplantation, mice were randomly allocated to vehicle control or treatment groups (n = 10). Drugs were administered on days 1–14. Tumour volume (A) and mice body weight (B) were recorded. After sacrifice, solid tumours were separated and weighed (C, D). Data represent mean ± SEM, n = 10, *p < 0.05, **p < 0.01 vs vehicle.
In order to further observe morphological changes in tumour tissues after administration of compound 5d, the tumour tissue sections obtained from the BALB/c mice bearing CT26 colorectal tumours were stained with haematoxylin-eosin (H&E) to highlight different tissue structures, such as the nucleus and cytoplasm.
Then, to understand the mechanism of tumour cell death, we detected the level of proliferating cell nuclear antigen (PCNA) protein and tumour cell apoptosis by immunohistochemistry (IHC) and terminal deoxynucleotidyl transferase dUTP nick end labelling (TUNEL) experiments, respectively. […]

[3] = system: naïve CD4+ T cells co-cultured with B16F1 cells; assay: FoxP3+ Treg cell differentiation in B16F1-T cell co-culture (flow cytometry); assay type: cell-based, mouse; settings: 18 μM
Experimental: as §1
Besides causing local tryptophan depletion, high IDO1 expression can also accumulate metabolites of kynurenine pathway. The elevated metabolites can not only induce effector T cell death directly through their cytotoxicity, but also promote the differentiation of naïve CD4^+ T cells into CD4^+ FoxP3^+ Treg cells by activating the AHR pathway. As a highly immunosuppressive subset of CD4^+ T cells, FoxP3^+ Treg cells are critical to the maintenance of immune homeostasis and are involved in tumour immune escape, thereby contributing to tumour development and progression. Therefore, we also utilised co-culture of B16F1 cells with naïve CD4^+ T cells to test whether the synthesised compounds could suppress IDO1 mediated Treg cell differentiation.
Figure 5. Compounds 5d and 8 g inhibited Treg cell differentiation in the cell co-culture system. (A) After co-cultured with B16F1 cells, T cells were collected. Surface staining was performed with CD4^+ FTTC and CD25^+ PE for 30 min at 4 °C. The cells were fixed and permeabilized with fixation buffer and permeabilization wash buffer. The intracellular staining was performed with FoxP3^+ APC for 20 min. The cells were then analysed by flow cytometry analysis. (B) Statistical analysis of result A. Data are represented as ± SEM (n = 3). *p < 0.05, **p < 0.01 vs T + B16F1. TEXT PRINTED IN THE PICTURE: (A) Navoximod: 8.1% (T + B16F1; 1.5 μM) | (A) 8g: 7.8% (T + B16F1; 18 μM) | (A) 5d: 2.1% (T + B16F1; 18 μM)

[4] = BALB/c mice, 12.5 mg/kg i.g, every day, 14 days
[5] = CT26 tumour tissue, BALB/c mice, 3.125-12.5 mg/kg i.g

SMILES: C=CC(=O)Nc1ccc(S(=O)(=O)NCc2cccc(Cl)c2)cc1 [5d, N-(4-(N-(3-Chlorobenzyl)sulfamoyl)phenyl)acrylamide]
- IC50 ([1]; HeLa cells, IFN-γ induced IDO1, kynurenine readout): 6.26 µM
- inhibition at 30 µM ([1]; percentage inhibition at 30 μM, IFN-γ-treated HeLa cells, kynurenine in media): 91.1%
- body weight of the mice ([2]; 14-day treatment, vs vehicle group): no significant change in body weight
- reduction of average tumour weight [2, 4]: 37.5%
- reduction of tumour volume [2, 4]: 35.9%
- tumour growth ([2]; BALB/c mice, 3.125, 6.25, 12.5 mg/kg, i.g, every day, 14 days, vs vehicle): significantly suppressed the growth of tumour in a dose-dependent manner
- number of tumour cells (H&E staining) [2, 5]: decreased the number of tumour cells
- tumour cell apoptosis (TUNEL) [2, 5]: significantly induced the tumour cell apoptosis in a dose-dependent manner
- expression of IFN-γ (IHC) ([2]; CT26 tumour tissue, BALB/c mice, 3.125-12.5 mg/kg i.g, vs vehicle): increased the expression of IFN-γ in a dose-dependent manner
- granzyme B levels (IHC) ([2]; CT26 tumour tissue, BALB/c mice, all doses): elevated granzyme B levels
- FoxP3+ Treg cells in spleen (FACS) ([2]; CT26 tumour-bearing mice, 3.125 mg/kg): 4.79%
- FoxP3+ Treg cells in spleen (FACS) ([2]; CT26 tumour-bearing mice, 6.25 mg/kg): 4.13%
- FoxP3+ Treg cells in spleen (FACS) ([2]; CT26 tumour-bearing mice, 12.5 mg/kg): 2.62%
- number of FoxP3+ Treg cells in spleen (in words) ([2]; CT26 tumour-bearing mice, 3.125-12.5 mg/kg): decreased the number of FoxP3^+ Treg cells in a dose-dependent manner
- reduction of FoxP3+ Treg cells compared with the vehicle group ([2]; spleen, high dose group): 2.4 fold
- FoxP3+ Treg cells (flow cytometry) [3]: 2.1%
- FoxP3+ Treg cell differentiation (in words) ([3]; Con A, 48 h): significantly reduce FoxP3^+ Treg cell differentiation; also recorded: returned to the initial level
